# Source: patent publication US7833983B2, “Analytical method and kit thereof” (Phadia, AB, priority 2003, dated 2010)
# Several values for one entry are separate records, joined by “and”; a condition that tells them apart may be missing. Equal values may be shown once. Non-standard residues stand in square brackets, D forms with d. No end group written: not given here. Arg(Me2s) = CN=C(NC)NCCC[C@H](N)C(=O)O
# What was measured:
# [1] = test system: anti-centromere antibodies (ACA; serum CEN); experiment: Epitope-mapping with immobilized oligopeptides (peptide arrays) probed with control sera (e.g. CEN); format: binding, human; settings: serum 1:100
# Excerpt: (§1) Sera (n=628) were collected from patients suffering from systemic lupus erytlhrematosus (SLE; n=176), rheumatoid arthritis (RA, n=86), Sjögren syndrome (SS, n=24); mixed connective tissue disease (MCTD, n=26), scleroderma (SSc, n=26) and polymyositis/dermatomyositis (PM/DM, n=13). All patients were classified according to the ACR-criteria for each disease (Tan et al., 1982; Arnett et al., 1988). To further assess the assay specificity, we analyzed a group of sera from patients with infection diseases (n=77) including hepatitis-C (HCV; n=30), cytomegalo (CMV; n=22) and Epstein-Barr Virus (EBV; n=25) as well as from 192 healthy blood donors. All sera were stored at −80° C. until use. For epitope-mapping a panel of five sera containing anti-Sm antibodies was used. As negative controls autoimmune sera with other antibody specificities than anti-Sm were selected.
# The published sequences of SmD1, P13641, (Rokeach et al., 1988) and SmD3, P43331, (Lehmeier et al., 1994) were used to synthesize overlapping 15 mer peptides with a pipetting robot according to the protocol described by Gausepohl and Behn (2002). The C-terminal extensions of both polypeptides were synthesized with an offset of 2 amino acids (13 amino acids overlap). […]
# anti-S33 antibodies = experiment: S33-peptide ELISA (Varelisa protocol) with patient and control sera; format: binding, human
# Excerpt: as §1
# Preparation of ELISA-plates. The lyophilized S33 peptide was used to prepare a stock solution of 10 μg/μl, which was stored in aliquots at −20° C. until use. Binding of the peptide to ELISA plates was carried out using 2.5 μg/ml of the peptide in coating buffer in a final volume of 120 μl per well. The coating procedure was carried out at 15° C. for 20 h. Unspecific binding sites were blocked with blocking solution. After discarding the blocking solution solid phases were dried at 37° C. for 2 h and sealed.
# The assay was performed according to the general protocol of the Varelisa® system (Pharmacia Diagnostics, Freiburg). […] The cut-off was technically set to 13 U/ml after ROC-analysis. PPVs and NPVs were calculated at different cut-off values. […]
# A 15 amino acid soluble peptide displaying highest sensitivity and specificity in the SPOT-assay (^108AARGsdRGRGMGRGNIF^122) (SEQ ID NO: 1) was synthesized for technical reasons with an additional Cys at the C-terminus. This peptide was subsequently used to develop an ELISA system based on the general protocol of the Varelisa® tests (Pharmacia, Freiburg, Germany).
# anti-Sm antibodies = experiment: Correlation study: anti-S33 ELISA versus commercially available anti-Sm antibody tests; format: binding, human; settings: for Reactivity of control serum: suggested cut-off 13
# Experimental: Randomly selected SLE sera (n=50) and various controls (n=100) were tested using the commercially available anti-Sm antibody tests from different suppliers (Sm test A—Sm Test D) and the results were compared to the findings of the anti-S33 ELISA test.
# pI of the peptide = format: physicochemical
# [2] = Rheumatic diseases (181), cut-off 13 U/ml
# [3] = randomly selected SLE sera (n = 101)
substance,measurement,setting,value
"AARG sdR GRGMGRGNIF (AARG[Arg(Me2s)]GRGMGRGNIF) [S33, SmD3 aa 108-122 mimotope peptide with a single symmetrical dimethylarginine at position 112; ELISA version with additional C-terminal Cys]",antibody binding of control sera,[1],not with the controls
same,Mean value,anti-S33 antibodies; CMV (22),0.8 U/ml
same,Top value,anti-S33 antibodies; CMV (22),3.2 U/ml
same,No. of anti-S33-positive sera,"anti-S33 antibodies; CMV (22), cut-off 13 U/ml",0
same,Mean value,anti-S33 antibodies; EBV (25),0.78 U/ml
same,Top value,anti-S33 antibodies; EBV (25),3.3 U/ml
same,Mean value,anti-S33 antibodies; HCV (30),0.42 U/ml
same,Top value,anti-S33 antibodies; HCV (30),1.1 U/ml
same,No. of anti-S33-positive sera,"anti-S33 antibodies; HCV (30), cut-off 13 U/ml",0
same,Mean value,anti-S33 antibodies; Healthy individuals (192),2.2 U/ml and 2.21 U/ml
same,Top value,anti-S33 antibodies; Healthy individuals (192),11.5 U/ml
same,No. of anti-S33-positive sera,"anti-S33 antibodies; Healthy individuals (192), cut-off 13 U/ml",0
same,Mean value,anti-S33 antibodies; Infectious diseases (77),0.67 U/ml
same,Top value,anti-S33 antibodies; Infectious diseases (77),3.3 U/ml
same,No. of anti-S33-positive sera,"anti-S33 antibodies; Infectious diseases (77), cut-off 13 U/ml",0
same,Mean value,anti-S33 antibodies; MCTD (26),3.1 U/ml
same,Top value,anti-S33 antibodies; MCTD (26),12.8 U/ml
same,No. of anti-S33-positive sera,"anti-S33 antibodies; MCTD (26), cut-off 13 U/ml",0
same,Mean value,anti-S33 antibodies; PM/DM (13),2.8 U/ml
same,Top value,anti-S33 antibodies; PM/DM (13),9.6 U/ml
same,No. of anti-S33-positive sera,"anti-S33 antibodies; PM/DM (13), cut-off 13 U/ml",0
same,Mean value,anti-S33 antibodies; RA (86),1.6 U/ml
same,Top value,anti-S33 antibodies; RA (86),24.6 U/ml
same,% of anti-S33-positive sera,"anti-S33 antibodies; RA (86), cut-off 13 U/ml",(1.2) %
same,No. of anti-S33-positive sera,"anti-S33 antibodies; RA (86), cut-off 13 U/ml",1
same,Mean value,anti-S33 antibodies; Rheumatic diseases (181),2.2 U/ml
same,Top value,anti-S33 antibodies; Rheumatic diseases (181),24.6 U/ml
same,% of anti-S33-positive sera,anti-S33 antibodies; [2],(0.6) %
same,No. of anti-S33-positive sera,anti-S33 antibodies; [2],1
same,Mean value,anti-S33 antibodies; SLE (n = 176),43 U/ml and 43.0 U/ml
same,No. of anti-S33-positive sera,"anti-S33 antibodies; SLE (n = 176), cut-off 13 U/ml",28 and 15
same,anti-S33 peptide reactivity,"anti-S33 antibodies; SLE patient #89, anti-SmD negative",15.4 units
same,anti-S33 peptide reactivity,"anti-S33 antibodies; SLE patient #92, anti-SmD negative",21.3 units
same,anti-S33 peptide reactivity,"anti-S33 antibodies; SLE patient #9811, anti-SmD negative",13.9 units
same,anti-S33 peptide reactivity,"anti-S33 antibodies; SLE patient #20627, anti-SmD negative",41.3 units
same,immunoresponse to the new Sm antigen (S33),"anti-S33 antibodies; SLE patient, beginning of the 18 month follow-up study, inactive phase of disease",337.5 U/ml
same,Mean value,anti-S33 antibodies; SSc (26),2.4 U/ml
same,Top value,anti-S33 antibodies; SSc (26),4.3 U/ml
same,No. of anti-S33-positive sera,"anti-S33 antibodies; SSc (26), cut-off 13 U/ml",0
same,reactivity range,anti-S33 antibodies; blood donors,0.4-11.5 U/ml
same,% of control sera tested positive,"anti-S33 antibodies; controls (n=449), cut-off 13 U/ml",0.2%
same,Mean value,anti-S33 antibodies; pSS (24),1.9 U/ml
same,Top value,anti-S33 antibodies; pSS (24),3.9 U/ml
same,No. of anti-S33-positive sera,"anti-S33 antibodies; pSS (24), cut-off 13 U/ml",0
same,S33+ among sera with Aab to La (%),anti-S33 antibodies; [3],18.2%
same,S33+ among sera with Aab to La (number),anti-S33 antibodies; [3],4/22
same,S33+ among sera with Aab to Ro-52 (%),anti-S33 antibodies; [3],22.7%
same,S33+ among sera with Aab to Ro-52 (number),anti-S33 antibodies; [3],5/22
same,S33+ among sera with Aab to Ro-60 (%),anti-S33 antibodies; [3],25%
same,S33+ among sera with Aab to Ro-60 (number),anti-S33 antibodies; [3],12/48
same,S33+ among sera with Aab to SmBB′ (%),anti-S33 antibodies; [3],50%
same,S33+ among sera with Aab to SmBB′ (number),anti-S33 antibodies; [3],11/22
same,S33+ among sera with Aab to SmD (%),anti-S33 antibodies; [3],68.8%
same,S33+ among sera with Aab to SmD (number),anti-S33 antibodies; [3],11/16
same,S33+ among sera with Aab to U1-68 kD (%),anti-S33 antibodies; [3],50%
same,S33+ among sera with Aab to U1-A (%),anti-S33 antibodies; [3],48%
same,S33+ among sera with Aab to U1-A (number),anti-S33 antibodies; [3],12/25
same,S33+ among sera with Aab to U1-C (%),anti-S33 antibodies; [3],42.3%
same,S33+ among sera with Aab to U1-C (number),anti-S33 antibodies; [3],11/26
same,S33+ among sera with Aab to dsDNA (%),anti-S33 antibodies; [3],25.5%
same,S33+ among sera with Aab to dsDNA (number),anti-S33 antibodies; [3],13/51
same,S33+ among sera with Aab to histone (%),anti-S33 antibodies; [3],26.3%
same,S33+ among sera with Aab to histone (number),anti-S33 antibodies; [3],10/38
same,S33+ among sera with Aab to β2-Glycoprotein (%),anti-S33 antibodies; [3],25%
same,S33+ among sera with Aab to β2-Glycoprotein (number),anti-S33 antibodies; [3],4/16
same,% of SLE sera positive,anti-Sm antibodies; 50 randomly selected SLE sera,12%
same,number of SLE sera positive,anti-Sm antibodies; 50 randomly selected SLE sera,6
same,% of controls positive,anti-Sm antibodies; 100 controls,0%
same,number of controls positive,anti-Sm antibodies; 100 controls,none
same,Reactivity of control serum,"anti-Sm antibodies; serum No. 105, ID 25516, MCTD",3.0 U/ml
same,Reactivity of control serum,"anti-Sm antibodies; serum No. 107, ID 25518, MCTD",1.0 U/ml
same,Reactivity of control serum,"anti-Sm antibodies; serum No. 108, ID 25519, MCTD",0.0 U/ml
same,Reactivity of control serum,"anti-Sm antibodies; serum No. 110, ID 25521, MCTD",0.5 U/ml
same,Reactivity of control serum,"anti-Sm antibodies; serum No. 112, ID 25523, MCTD",0.0 U/ml
same,Reactivity of control serum,"anti-Sm antibodies; serum No. 121, ID 25532, MCTD",2.6 U/ml
same,Reactivity of control serum,"anti-Sm antibodies; serum No. 123, ID 25534, MCTD",1.1 U/ml
same,Reactivity of control serum,"anti-Sm antibodies; serum No. 126, ID 25537, MCTD",3.2 U/ml
same,Reactivity of control serum,"anti-Sm antibodies; serum No. 128, ID 25539, MCTD",0.7 U/ml
same,Reactivity of control serum,"anti-Sm antibodies; serum No. 129, ID 25540, MCTD",4.1 U/ml
same,Reactivity of control serum,"anti-Sm antibodies; serum No. 132, ID 25543, MCTD",2.4 U/ml
same,Reactivity of control serum,"anti-Sm antibodies; serum No. 133, ID 25544, MCTD, SLE",9.9 U/ml
same,Reactivity of control serum,"anti-Sm antibodies; serum No. 137, ID 25448, SSc",2.2 U/ml
same,Reactivity of control serum,"anti-Sm antibodies; serum No. 145, ID 25456, MCTD",1.1 U/ml
same,pI,pI of the peptide,> 12.88
